Test results published in the supplement of paper PMC10307832.

Assays:
Experiment in all cases: relative viability (nuclei count vs DMSO), 5 days (fraction); higher = more cells survive
[1] = compound: C=CCc1cccc(/C=N/NC(=O)CN2CCN(Cc3ccccc3)CC2)c1O [PAC-1] + Nc1ncn([C@H]2C[C@H](O)[C@@H](CO)O2)c(=O)n1 [Decitabine] (partner 2 µM)
Outline: (§1)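 Lung cancer cell lines in 1536-well plates got either a single drug or a fixed anchor-drug dose together with five library-drug doses (not always all listed) in √10 steps, by pin tool, on the day after seeding. Nuclei were counted after 5 days, and relative viability is the treated-to-vehicle ratio of nuclei counts. Values are medians of duplicate plates.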

[2] = compound: C=CCc1cccc(/C=N/NC(=O)CN2CCN(Cc3ccccc3)CC2)c1O [PAC-1] + COc1cc2c(Oc3ccc(NC(=O)C4(C(=O)Nc5ccc(F)cc5)CC4)cc3F)ccnc2cc1OCCCN1CCOCC1 [Foretinib] (partner 0.25 µM)
Outline: as §1

[3] = compound: C=CC(=O)N1CCC[C@@H](n2nc(-c3ccc(Oc4ccccc4)cc3)c3c(N)ncnc32)C1 [Ibrutinib] + CS(=O)(=O)N1CCN(Cc2cc3nc(-c4cccc5[nH]ncc45)nc(N4CCOCC4)c3s2)CC1 [Pictilisib] (partner 1 µM)
Outline: as §1

[4] = compound: C=CCc1cccc(/C=N/NC(=O)CN2CCN(Cc3ccccc3)CC2)c1O [PAC-1] + CS(=O)(=O)CCNCc1ccc(-c2ccc3ncnc(Nc4ccc(OCc5cccc(F)c5)c(Cl)c4)c3c2)o1 [Lapatinib] (partner 2 µM)
Outline: as §1

SK-MES-1
relative viability ([1]; first compound 0.02 µM): 0.432 | relative viability ([1]; first compound 0.06325 µM): 0.389 | relative viability ([1]; first compound 0.2 µM): 0.325 | relative viability ([1]; first compound 2 µM): 0.322 | relative viability ([2]; first compound 0.02 µM): 0.816 | relative viability ([2]; first compound 0.06325 µM): 1.03 | relative viability ([2]; first compound 0.2 µM): 0.851 | relative viability ([2]; first compound 2 µM): 0.943 | relative viability ([3]; first compound 0.005 µM): 0.307 | relative viability ([3]; first compound 0.01581 µM): 0.274 | relative viability ([3]; first compound 0.05 µM): 0.254 | relative viability ([3]; first compound 0.1581 µM): 0.342 | relative viability ([3]; first compound 0.5 µM): 0.198 | relative viability ([4]; first compound 0.02 µM): 0.455 | relative viability ([4]; first compound 0.06325 µM): 0.457 | relative viability ([4]; first compound 0.2 µM): 0.443 | relative viability ([4]; first compound 2 µM): 0.445
